Measured values: article PMC6627850, “Identification of Plasmodium falciparum Mitochondrial Malate: Quinone Oxidoreductase Inhibitors from the Pathogen Box” (Genes, 2019)
Where “and” joins values, the source holds several entries; their conditions need not be identical. Equal entries are not always repeated. Where two headings read alike, the source gives them in different places.

How the values were obtained:
recombinant PfMQO = recombinant PfMQO (Plasmodium falciparum, UniProt C6KT09); experiment: biochemical; conditions: for inhibition at 10 µM: read-out: Inhibition (%) against recombinant PfMQO; for IC50: serial dilution 10 to 0.0003 μM, quadruplicate, ± standard deviation
Sequence of recombinant PfMQO (C6KT09 entry or part of it): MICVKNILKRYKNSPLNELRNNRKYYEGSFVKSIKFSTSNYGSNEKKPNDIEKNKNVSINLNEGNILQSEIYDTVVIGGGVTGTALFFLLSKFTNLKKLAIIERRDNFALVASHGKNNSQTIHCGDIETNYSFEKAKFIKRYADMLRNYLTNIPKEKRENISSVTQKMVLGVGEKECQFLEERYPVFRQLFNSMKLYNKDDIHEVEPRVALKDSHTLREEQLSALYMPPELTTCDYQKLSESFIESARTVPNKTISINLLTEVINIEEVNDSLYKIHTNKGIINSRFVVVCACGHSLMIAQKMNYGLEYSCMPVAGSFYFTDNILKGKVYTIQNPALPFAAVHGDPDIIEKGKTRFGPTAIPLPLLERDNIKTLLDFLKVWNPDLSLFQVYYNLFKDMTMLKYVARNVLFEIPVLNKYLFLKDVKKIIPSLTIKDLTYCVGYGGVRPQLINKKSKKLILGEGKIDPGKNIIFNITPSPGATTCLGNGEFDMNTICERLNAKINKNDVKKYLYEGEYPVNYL

P. falciparum 3D7 strain = experiment: Plasmodium falciparum growth inhibition assay (diaphorase-coupled LDH assay, 72 hours); assay type: cell-based; conditions: for Growth inhibition of parasite cells (result in words): P. falciparum 3D7, LDH assay; for IC50: Plasmodium falciparum, read-out: IC50 growth of P. falciparum 3D7 strain in culture (ABS)
Procedure: Human RBCs were received from Japanese Red Cross Society. The experiments were performed under the guidelines of the ethical committee in The University of Tokyo (permission no. 10050) and Nagasaki University (permission no. 19). Parasite culture was synchronized with 5% (w/v) D-sorbitol as previously described. Ring stage parasites (100 μL/well) were placed in a 96-well plate at 0.3% parasitemia. […] As a control, wells containing culture medium and RBCs alone were prepared. […] The absorbance of each well was measured at 655 nm using SpectraMax Paradigm® Multi-Mode microplate reader (Molecular Devices, San Jose, CA, USA).

HepG2 = tested on: HepG2; parameters: method as in earlier work; conditions: ref https://www.mmv.org/mmv-open/pathogen-box/about-pathogen-box#composition; cited from earlier work
[1] = tested on: stage IV gametocyte cells; parameters: method as in PMID 28674055; conditions: cited from earlier work
ABS parasites = tested on: ABS parasites; parameters: method as in PMID 28674055; conditions: read-out: IC50 against the ABS parasites, previous study; cited from earlier work
Candida albicans = conditions: recently reported; cited from earlier work
Cryptococcus neoformans = conditions: recently reported; cited from earlier work
[2] = read-out: IC50 against recombinant PfMQO
[3] = 10 μM compound, average of 4 independent experiments
[4] = 3D7, LDH assay, 72 hours incubation, average of three independent experiments ± SD

| IC50 (recombinant PfMQO; [2]) | inhibition at 10 µM (recombinant PfMQO; [3]) [%] | IC50 (P. falciparum 3D7 strain; [4]) [µM] | SMILES | inhibition at 10 µM (recombinant PfMQO) [%] | Growth inhibition of parasite cells (result in words) (P. falciparum 3D7 strain) | also measured |
| --- | --- | --- | --- | --- | --- | --- |
| < 5 µM and 0.343 µM | 98.5 |  | O=C(Nc1nnc(S)s1)c1cc(Br)ccc1Cl [MMV676492] |  | failed to inhibit the growth |  |
| < 5 µM and 3.96 µM | 76 | 0.46 | N=C(N)Nc1ccc(-c2ccc(-c3ccc(NC(=N)N)cc3Cl)o2)c(Cl)c1 [MMV688179] |  |  | HepG2 cytotoxicity CC20 (HepG2): 6.8 µM; Activity against the stage IV gametocyte cells [1]: active; IC50 (ABS parasites): 0.59 µM |
| < 5 µM and 1.15 µM | 80.5 | 1.03 | N=C(N)Nc1ccc(-c2ccc(-c3ccc(NC(=N)N)c(Cl)c3)o2)cc1Cl [MMV688271] |  |  | HepG2 cytotoxicity CC20 (HepG2): 13.5 µM; IC50 (ABS parasites): 1.21 µM; Antifungal effect against Candida albicans (Candida albicans): antifungal effect; Antifungal effect against Cryptococcus neoformans (Cryptococcus neoformans): antifungal effect |
|  |  |  | COc1ccc(C2=NN(C3CCCCCC3)C(=O)C3CC=CCC23)cc1OCCCCOc1ccc(-c2nn[nH]n2)cc1 (stereo not drawn) [MMV690027] | 98.2 |  | IC50 (P. falciparum 3D7 strain; 3D7, 72 h): 16.2 µM |

| SMILES | IC50 (recombinant PfMQO; [2]) | inhibition at 10 µM (recombinant PfMQO; [3]) [%] | IC50 (P. falciparum 3D7 strain; [4]) [µM] | inhibition at 10 µM (recombinant PfMQO) [%] | Growth inhibition of parasite cells (result in words) (P. falciparum 3D7 strain) | also measured |
| --- | --- | --- | --- | --- | --- | --- |
| Cc1cc(C)cc(COc2ccc3c(C)c(CCC(=O)O)c(=O)oc3c2C)c1 [MMV676476] | < 5 µM and 3.57 µM |  |  | 63.2 | failed to inhibit the growth |  |
| O=C(NCCc1c[nH]c2ccccc12)c1cc2ccccc2oc1=O [MMV676539] | < 5 µM and 4.06 µM |  |  | 65.6 | failed to inhibit the growth |  |
| COc1ccc(C2=NN(C3CCCCCC3)C(=O)C2(C)C)cc1OCCCCOc1ccc(-c2nnn[nH]2)cc1 [MMV690028] |  |  | 6.05 | 86.7 |  | IC50 (recombinant PfMQO; IC50 against recombinant PfMQO): < 5 µM and 1.1 µM |
